Experimental data as given in paper PMC11314561, “Design and Synthesis of Novel Aminoindazole-pyrrolo[2,3-b]pyridine Inhibitors of IKKα That Selectively Perturb Cellular Non-Canonical NF-κB Signalling” (Molecules, 2024).

Columns and labels:
Assay in all cases: kinase panel
Assay type in all cases: biochemical
[1] = target: CaMKI(h) (Homo sapiens, UniProt Q14012)
Source text: (§1) We profiled three compounds from the series across the kinome (Table S1).
(§2) Ta b l e S1. The % inhibition of compounds 4, 5r [SU1261], and 6g [SU1349] against a
(§3) panel of kinase enzymes. We proϐiled three compounds from the series across 231
(§4) kinases. For SU1349, given its structural similarity with SU1261, we selected 98 from the
(§5) Tested kinase % inhibiƟon

[2] = target: ROCK-II(h) (Homo sapiens, UniProt O75116)
Source text: as §1, §2, §3, §4, §5

[3] = target: T1, Aurora-C(h) (Homo sapiens, UniProt Q9UQB9)
T1 sequence (Q9UQB9 1-309): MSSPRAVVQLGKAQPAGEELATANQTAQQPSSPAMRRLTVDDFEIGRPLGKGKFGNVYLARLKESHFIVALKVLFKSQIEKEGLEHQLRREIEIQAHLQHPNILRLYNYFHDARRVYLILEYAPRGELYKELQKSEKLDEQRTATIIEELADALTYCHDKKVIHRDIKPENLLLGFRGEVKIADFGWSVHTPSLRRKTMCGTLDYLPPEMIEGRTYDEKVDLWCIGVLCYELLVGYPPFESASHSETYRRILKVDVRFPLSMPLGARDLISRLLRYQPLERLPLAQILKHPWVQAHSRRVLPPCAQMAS
Source text: as §1, §2, §3, §4, §5

[4] = target: T2, Haspin(h) (Homo sapiens, UniProt Q8TF76)
T2 sequence (Q8TF76 1-798): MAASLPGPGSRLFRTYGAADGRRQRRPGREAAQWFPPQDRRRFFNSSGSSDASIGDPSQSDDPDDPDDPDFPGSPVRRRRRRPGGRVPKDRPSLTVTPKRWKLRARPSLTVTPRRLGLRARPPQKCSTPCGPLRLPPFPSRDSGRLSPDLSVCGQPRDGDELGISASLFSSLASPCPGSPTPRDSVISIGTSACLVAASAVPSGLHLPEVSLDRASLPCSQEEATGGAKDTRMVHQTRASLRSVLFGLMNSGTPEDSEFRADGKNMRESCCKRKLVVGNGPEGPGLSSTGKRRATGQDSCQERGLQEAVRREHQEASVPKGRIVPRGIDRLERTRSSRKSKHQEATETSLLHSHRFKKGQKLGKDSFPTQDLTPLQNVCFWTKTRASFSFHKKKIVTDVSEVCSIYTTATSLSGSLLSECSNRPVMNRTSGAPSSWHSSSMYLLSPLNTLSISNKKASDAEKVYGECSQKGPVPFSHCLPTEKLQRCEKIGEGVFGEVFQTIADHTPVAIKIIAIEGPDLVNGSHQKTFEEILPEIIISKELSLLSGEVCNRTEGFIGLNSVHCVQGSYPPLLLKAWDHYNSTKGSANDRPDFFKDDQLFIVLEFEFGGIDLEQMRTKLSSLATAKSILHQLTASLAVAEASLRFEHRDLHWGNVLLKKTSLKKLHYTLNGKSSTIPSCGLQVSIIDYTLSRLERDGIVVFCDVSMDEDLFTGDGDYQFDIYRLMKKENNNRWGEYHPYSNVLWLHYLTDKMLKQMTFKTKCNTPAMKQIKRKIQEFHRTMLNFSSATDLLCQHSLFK
Source text: as §1, §2, §3, §4, §5

[5] = target: T3, Mer(h) (Homo sapiens, UniProt Q12866)
T3 sequence (Q12866 21-999): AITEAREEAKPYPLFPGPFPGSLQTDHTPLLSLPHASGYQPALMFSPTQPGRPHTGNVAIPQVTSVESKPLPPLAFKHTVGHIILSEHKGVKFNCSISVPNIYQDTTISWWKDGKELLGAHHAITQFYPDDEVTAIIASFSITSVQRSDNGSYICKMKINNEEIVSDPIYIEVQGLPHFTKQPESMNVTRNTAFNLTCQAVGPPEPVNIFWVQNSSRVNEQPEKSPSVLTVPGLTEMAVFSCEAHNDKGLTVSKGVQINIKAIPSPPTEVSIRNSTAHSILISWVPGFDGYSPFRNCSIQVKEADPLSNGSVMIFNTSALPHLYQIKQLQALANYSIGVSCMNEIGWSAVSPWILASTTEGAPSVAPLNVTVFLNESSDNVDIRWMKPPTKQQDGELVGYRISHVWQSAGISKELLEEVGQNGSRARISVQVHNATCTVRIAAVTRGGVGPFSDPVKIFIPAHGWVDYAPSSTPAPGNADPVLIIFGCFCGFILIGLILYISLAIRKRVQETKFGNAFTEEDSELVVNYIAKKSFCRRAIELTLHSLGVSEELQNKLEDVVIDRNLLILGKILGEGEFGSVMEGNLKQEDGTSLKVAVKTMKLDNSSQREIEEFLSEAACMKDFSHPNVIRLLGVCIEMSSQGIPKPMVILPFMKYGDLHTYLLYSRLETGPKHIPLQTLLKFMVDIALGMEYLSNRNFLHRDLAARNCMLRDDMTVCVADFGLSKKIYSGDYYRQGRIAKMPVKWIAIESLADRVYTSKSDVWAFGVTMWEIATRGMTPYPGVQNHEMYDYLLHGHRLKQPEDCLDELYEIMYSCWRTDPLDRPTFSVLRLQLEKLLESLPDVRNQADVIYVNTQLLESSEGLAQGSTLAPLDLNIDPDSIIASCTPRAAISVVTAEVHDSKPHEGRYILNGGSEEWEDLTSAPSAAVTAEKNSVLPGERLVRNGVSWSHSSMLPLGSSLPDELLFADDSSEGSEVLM
Source text: as §1, §2, §3, §4, §5

[6] = target: Arg(h) (Homo sapiens, UniProt P42684)
Source text: as §1, §2, §3, §4, §5

[7] = target: Lck(h) (Homo sapiens, UniProt P06239)
Source text: as §1, §2, §3, §4, §5

[8] = target: CaMKIIγ(h) (Homo sapiens, UniProt Q13555)
Source text: as §1, §2, §3, §4, §5

[9] = target: Syk(h) (Homo sapiens, UniProt P43405)
Source text: as §1, §2, §3, §4, §5

[10] = target: T4, SAPK3(h) (Homo sapiens, UniProt P53778)
T4 sequence (P53778 1-367): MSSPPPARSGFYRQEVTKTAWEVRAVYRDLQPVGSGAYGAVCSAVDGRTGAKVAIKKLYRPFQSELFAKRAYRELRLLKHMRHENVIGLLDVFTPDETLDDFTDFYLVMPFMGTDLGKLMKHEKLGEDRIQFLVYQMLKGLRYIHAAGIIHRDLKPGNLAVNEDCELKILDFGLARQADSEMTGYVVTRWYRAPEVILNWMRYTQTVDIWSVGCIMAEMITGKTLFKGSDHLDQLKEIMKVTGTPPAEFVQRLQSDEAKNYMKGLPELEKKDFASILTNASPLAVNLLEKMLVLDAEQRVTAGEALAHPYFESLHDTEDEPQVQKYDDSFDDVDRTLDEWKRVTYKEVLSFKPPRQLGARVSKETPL
Source text: as §1, §2, §3, §4, §5

Chain of Arg(h) (P42684 whole entry): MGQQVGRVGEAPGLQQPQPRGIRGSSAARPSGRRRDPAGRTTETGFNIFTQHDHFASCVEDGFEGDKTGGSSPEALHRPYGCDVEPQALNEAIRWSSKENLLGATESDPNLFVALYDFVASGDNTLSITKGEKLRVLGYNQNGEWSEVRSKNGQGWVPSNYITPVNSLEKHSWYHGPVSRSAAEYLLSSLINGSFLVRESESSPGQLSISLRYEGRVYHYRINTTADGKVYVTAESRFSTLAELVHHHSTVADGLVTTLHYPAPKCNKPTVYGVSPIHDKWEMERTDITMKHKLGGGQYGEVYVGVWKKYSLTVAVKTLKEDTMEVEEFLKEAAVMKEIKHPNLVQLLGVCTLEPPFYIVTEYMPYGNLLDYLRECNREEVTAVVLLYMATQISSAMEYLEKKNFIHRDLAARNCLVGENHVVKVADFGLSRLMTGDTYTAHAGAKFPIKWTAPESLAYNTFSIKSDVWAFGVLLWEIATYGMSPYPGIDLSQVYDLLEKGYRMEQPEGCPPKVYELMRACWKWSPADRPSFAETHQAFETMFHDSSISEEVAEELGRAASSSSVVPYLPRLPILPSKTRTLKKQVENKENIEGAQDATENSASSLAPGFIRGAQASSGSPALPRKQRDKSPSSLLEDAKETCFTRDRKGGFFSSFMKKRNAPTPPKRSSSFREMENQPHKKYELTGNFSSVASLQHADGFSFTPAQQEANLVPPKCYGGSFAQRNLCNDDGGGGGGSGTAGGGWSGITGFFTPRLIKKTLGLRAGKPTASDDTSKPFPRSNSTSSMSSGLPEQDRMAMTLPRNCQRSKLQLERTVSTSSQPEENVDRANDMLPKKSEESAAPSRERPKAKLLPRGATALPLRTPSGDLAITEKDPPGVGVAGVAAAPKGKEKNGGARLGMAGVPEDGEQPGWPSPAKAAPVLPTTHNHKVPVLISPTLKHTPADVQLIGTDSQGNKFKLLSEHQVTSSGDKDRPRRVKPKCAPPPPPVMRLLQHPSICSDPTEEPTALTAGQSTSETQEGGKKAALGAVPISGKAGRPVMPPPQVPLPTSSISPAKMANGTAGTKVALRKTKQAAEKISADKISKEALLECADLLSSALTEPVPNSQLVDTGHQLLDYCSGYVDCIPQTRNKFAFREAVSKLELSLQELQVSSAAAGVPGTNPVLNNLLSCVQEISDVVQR
Chain of ROCK-II(h) (O75116 whole entry): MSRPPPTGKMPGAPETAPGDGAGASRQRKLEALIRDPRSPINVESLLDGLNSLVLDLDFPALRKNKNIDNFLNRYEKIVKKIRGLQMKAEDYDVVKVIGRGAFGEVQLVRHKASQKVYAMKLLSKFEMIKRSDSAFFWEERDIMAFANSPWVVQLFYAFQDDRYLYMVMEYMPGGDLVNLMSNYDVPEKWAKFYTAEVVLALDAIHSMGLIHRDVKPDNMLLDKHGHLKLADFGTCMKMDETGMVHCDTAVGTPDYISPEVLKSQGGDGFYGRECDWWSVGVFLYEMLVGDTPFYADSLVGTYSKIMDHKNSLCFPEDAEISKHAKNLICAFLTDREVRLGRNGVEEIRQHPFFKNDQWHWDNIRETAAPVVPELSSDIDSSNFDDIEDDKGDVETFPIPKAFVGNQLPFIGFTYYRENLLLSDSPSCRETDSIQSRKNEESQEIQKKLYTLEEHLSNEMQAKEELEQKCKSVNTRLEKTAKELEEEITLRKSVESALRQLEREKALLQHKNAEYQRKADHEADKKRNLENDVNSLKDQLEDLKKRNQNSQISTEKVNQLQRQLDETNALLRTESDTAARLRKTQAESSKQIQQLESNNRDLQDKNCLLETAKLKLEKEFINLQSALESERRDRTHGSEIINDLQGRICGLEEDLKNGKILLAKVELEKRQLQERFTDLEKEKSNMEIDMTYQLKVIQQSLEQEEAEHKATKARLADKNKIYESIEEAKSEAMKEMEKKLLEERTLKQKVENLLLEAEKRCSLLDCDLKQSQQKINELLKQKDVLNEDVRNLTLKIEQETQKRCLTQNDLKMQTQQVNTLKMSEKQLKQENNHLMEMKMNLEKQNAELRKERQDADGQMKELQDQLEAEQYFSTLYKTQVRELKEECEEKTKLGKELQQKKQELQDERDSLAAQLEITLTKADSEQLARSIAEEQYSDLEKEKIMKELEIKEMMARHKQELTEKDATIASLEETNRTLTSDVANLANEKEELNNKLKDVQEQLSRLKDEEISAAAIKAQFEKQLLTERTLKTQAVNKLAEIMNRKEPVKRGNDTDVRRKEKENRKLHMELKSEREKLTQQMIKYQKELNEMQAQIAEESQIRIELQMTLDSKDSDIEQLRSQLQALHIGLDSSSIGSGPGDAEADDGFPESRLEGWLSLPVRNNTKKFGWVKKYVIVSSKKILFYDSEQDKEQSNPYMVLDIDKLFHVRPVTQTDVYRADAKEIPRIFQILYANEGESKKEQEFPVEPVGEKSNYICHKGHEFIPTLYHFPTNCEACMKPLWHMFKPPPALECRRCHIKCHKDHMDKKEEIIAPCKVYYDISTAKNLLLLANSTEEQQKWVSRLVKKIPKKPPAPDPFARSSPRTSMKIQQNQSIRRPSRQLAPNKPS
Chain of CaMKI(h) (Q14012 whole entry): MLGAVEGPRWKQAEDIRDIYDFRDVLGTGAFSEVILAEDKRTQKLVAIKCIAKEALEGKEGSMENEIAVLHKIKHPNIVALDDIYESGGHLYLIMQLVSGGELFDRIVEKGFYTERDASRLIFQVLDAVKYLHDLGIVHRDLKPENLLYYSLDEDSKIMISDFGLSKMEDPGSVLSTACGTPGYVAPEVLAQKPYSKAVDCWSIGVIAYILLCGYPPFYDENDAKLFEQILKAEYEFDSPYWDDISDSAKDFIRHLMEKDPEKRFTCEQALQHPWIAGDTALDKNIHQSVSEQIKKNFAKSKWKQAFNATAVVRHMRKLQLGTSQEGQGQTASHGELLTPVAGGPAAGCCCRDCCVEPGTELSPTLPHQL
Chain of CaMKIIγ(h) (Q13555 whole entry): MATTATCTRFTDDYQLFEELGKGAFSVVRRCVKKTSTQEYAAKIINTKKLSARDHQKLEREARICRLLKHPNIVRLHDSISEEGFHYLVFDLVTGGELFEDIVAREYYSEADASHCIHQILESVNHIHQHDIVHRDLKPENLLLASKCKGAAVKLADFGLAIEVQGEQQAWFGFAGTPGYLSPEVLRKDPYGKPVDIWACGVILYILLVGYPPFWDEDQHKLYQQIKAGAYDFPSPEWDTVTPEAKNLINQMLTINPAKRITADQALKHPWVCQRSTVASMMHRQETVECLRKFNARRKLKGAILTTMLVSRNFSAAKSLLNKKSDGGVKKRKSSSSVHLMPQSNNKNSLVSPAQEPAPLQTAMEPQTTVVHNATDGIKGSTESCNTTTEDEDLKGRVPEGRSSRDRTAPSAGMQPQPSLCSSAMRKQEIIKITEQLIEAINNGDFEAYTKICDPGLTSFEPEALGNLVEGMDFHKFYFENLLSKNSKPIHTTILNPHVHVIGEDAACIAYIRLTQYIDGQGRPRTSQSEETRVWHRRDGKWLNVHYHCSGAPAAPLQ
Chain of Lck(h) (P06239 whole entry): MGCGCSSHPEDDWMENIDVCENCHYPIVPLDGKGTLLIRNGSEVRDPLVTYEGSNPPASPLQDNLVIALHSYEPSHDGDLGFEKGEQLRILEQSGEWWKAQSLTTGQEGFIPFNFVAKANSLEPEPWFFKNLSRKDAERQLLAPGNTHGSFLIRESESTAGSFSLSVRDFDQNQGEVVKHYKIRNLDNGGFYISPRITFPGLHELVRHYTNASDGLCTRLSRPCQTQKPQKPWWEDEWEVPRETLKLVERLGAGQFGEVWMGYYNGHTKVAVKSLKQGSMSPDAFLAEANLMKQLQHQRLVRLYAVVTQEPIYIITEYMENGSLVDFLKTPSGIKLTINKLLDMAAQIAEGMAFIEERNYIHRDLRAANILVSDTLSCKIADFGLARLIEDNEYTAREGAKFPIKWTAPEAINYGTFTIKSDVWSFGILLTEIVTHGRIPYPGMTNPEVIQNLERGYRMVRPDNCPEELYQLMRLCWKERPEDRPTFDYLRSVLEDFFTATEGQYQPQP

| SMILES | inhibition at 1 µM [1] | inhibition at 1 µM [2] | inhibition at 1 µM [3] | inhibition at 1 µM [4] | inhibition at 1 µM [5] | inhibition at 1 µM [6] | inhibition at 1 µM [7] | inhibition at 1 µM [8] | inhibition at 1 µM [9] | inhibition at 1 µM [10] |
| --- | --- | --- | --- | --- | --- | --- | --- | --- | --- | --- |
| Nc1n[nH]c2ccc(-c3ccnc4[nH]c(-c5ccccc5)cc34)cc12 [Compound 4] | 9% | 89% | 90% | 101% | 88% | 96% | 48% | 93% | 77% | 99% |
| Nc1n[nH]c2ccc(-c3ccnc4[nH]c(-c5cccc(OCc6ccccc6)c5)cc34)cc12 [Compound 5r [SU1261]] | -6% | 58% | 32% | 94% | 27% | 76% | 34% | 84% | 32% | 49% |
| Nc1n[nH]c2ccc(-c3ccnc4[nH]c(-c5ccnc(OCc6ccccc6)c5)cc34)cc12 [Compound 6g [SU1349]] | 1% | 25% | 19% | 92% | 12% | 24% | -19% | 46% | 25% | 44% |
